Data reported in PMC6934184, “Selective DNA-PKcs inhibition extends the therapeutic index of localized radiotherapy and chemotherapy” (The Journal of Clinical Investigation, 2019).

Molecular target: T1, PHKG2 (Homo sapiens, UniProt P15735)
T1 construct: purchased Thermo Fisher Scientific (Life Technologies) SelectScreen
Assay: SelectScreen Z'LYTE
Assay type: biochemical
In short: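 SelectScreen broad panel; activity (Z'LYTE, Adapta) plus binding formats. ATP: Km app for CSF1R Z'LYTE; 10 for CAMK1 Adapta. Readout = % per kinase.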

T1 sequence (P15735 whole entry): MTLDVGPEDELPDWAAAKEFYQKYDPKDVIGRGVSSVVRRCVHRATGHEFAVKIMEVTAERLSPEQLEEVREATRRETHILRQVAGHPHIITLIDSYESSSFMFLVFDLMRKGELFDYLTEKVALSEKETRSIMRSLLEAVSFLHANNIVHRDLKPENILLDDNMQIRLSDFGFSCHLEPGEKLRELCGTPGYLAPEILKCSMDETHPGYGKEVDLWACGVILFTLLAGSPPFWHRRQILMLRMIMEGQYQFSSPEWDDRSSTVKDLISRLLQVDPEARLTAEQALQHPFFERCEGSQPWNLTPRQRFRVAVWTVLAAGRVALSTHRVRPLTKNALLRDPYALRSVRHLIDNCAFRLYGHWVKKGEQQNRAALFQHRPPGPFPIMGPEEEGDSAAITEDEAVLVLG

Compound: CN(C(=O)CN1CCOCC1)c1ccc2sc3c(-c4cccc5c(=O)cc(N6CC7CCC(C6)O7)oc45)cccc3c2c1 [NU5455]
- inhibition at 1 µM: -3.6%
